Laboratory results as given in patent US9539262B2, “Ophthalmic composition comprising a prostaglandin” (SUN PHARMA ADVANCED RESEARCH COMPANY, LTD., priority 2007, dated 2017).

System: New Zealand White Rabbits
Assay: Ocular irritancy potential and systemic toxicity, daily repeated ocular instillation
Format: in vivo
Description: The pharmaceutical compositions of the present invention were tested in New Zealand White Rabbits, for ocular irritancy potential and systemic toxicity. The pharmaceutical composition of the present invention and polyethylene glycol hydroxystearate (the excipient) both were tested. The test involved daily repeated ocular instillation for at least 14 days.

Compound: CC(C)OC(=O)CCC/C=C\C[C@@H]1[C@@H](CC[C@@H](O)CCc2ccccc2)[C@H](O)C[C@@H]1O [latanoprost, isopropyl-(Z)-7[(1R,2R,3R,5S)3,5-dihydroxy-2-[(3R)-3-hydroxy-5-phenylpentyl]cyclopentyl]-5-heptenoate]
- gross or microscopical pathological lesion (at least 14 days ocular instillation): did not result into any gross or microscopical pathological lesion
- alterations in body weight, % body weight gain, terminal body weight, absolute and relative organ weights, differential cell count of bone marrow, biochemical and hematological parameters (at least 14 days ocular instillation, compared to the control group): no statistically significant alterations
- clinical sign or irritation in the eyes (daily repeated ocular instillation for at least 14 days, Solutol HS 15 approximately 47 times HRD, latanoprost approximately 48 times HRD): no clinical sign or irritation in the eyes
